Results from patent publication US9018188B2, “MicroRNA inhibitors” (Ottawa Hospital Research Institute, priority 2011, dated 2015).

Tested on: miR-133
Experiment: miR-133 biosensor luciferase assay in C2C12 myoblast clones
Assay type: cell-based
Settings: C2C12 clone A10, 48 hours in growth media; TGF-β 10 ng/mL, Insulin 850 nM, IBMX 0.5 mM, AICAR 0.5 mM, Dexamethasone 1
Text: The design of the miR-133 biosensor is based on the principle that recognition of microRNA target sites in 3′UTR by microRNA/RISC leads to the inhibition of the translation of the target mRNAs. An artificial 3′UTR containing optimized miR-133 target sites in tandem was designed and cloned downstream of the open reading frames of firefly luciferases and GFP, which in together function as miR-133 biosensor (FIG. 9A), in a lentiviral vector. C2C12 myoblast clones were infected with lentiviruses carrying the miR-133 biosensor and selected for stable expression of the reporter construct. Activity of potential modulators or miR-133 is tested and read as a reverse correlation between miR-133 functionality and luciferase/GFP intensities. The construct can be used for live-cell imaging (in vitro and in vivo) and allows real-time detection.
Two miR-133 biosensor plasmids were constructed—pCMV-FireflyLuc_miR133TS_EF1_Puro and pCMV-RenillaLuc—133TS_EF1_Puro. In the pCMV-FireflyLuc—133TS_EF1_Puro plasmid, five tandem miR-133 target sites (miR133TS; 5′-[…]-3′, SEQ ID NO:22) was cloned downstream of a firefly luciferase ORF (with a stop codon), which is driven by a CMV promoter. These miR-133 target sites in whole serve as an artificial 3′ UTR of firefly luciferase transcript. The “GGACCAAA” sequence in the miR-133 target sites is complementary to the nucleotide positions 1-8 in miR-133a and miR-133b. The “TAGCTGGTTG” sequence in the miR-133 target sites is complementary to the nucleotide positions 13-22 in miR-133a and miR-133b. The remaining sequence “CCA” sequence in the middle will not anneal to the miR-133a or miR-133b, which will form a “bulge” structure when miR-133a/b anneal to the RNA transcript of miR-133 target sites. This fireflyLuc_miR133TS cassette was further cloned into a lentivirus backbone. In the pCMV-RenillaLuc—133TS_EF1_Puro plasmid, the firefly luciferase ORF was replaced by a renilla luciferase ORF. pCMV-FireflyLuc_miR133TS_EF1_Puro and pCMV-RenillaLuc—133TS_EF1_Puro plasmids were used to generate lentivirus particles in 293T cells, which were used to infect C2C12 myoblasts. Infected C2C12 myoblasts were selected by Puromycin (2 mg/L) and clonally expanded. C2C12 clones, C11 and C3, were used in subsequent experiments.
In one experiment, a C2C12 clone C11 (25,000 cells per well on 24-well plates), was transfected with 0.5 nM and 5 nM miR-133 mimetics (Life Technologies/Ambion), which can be processed into mature miR-133 in cells. […] Both experiments were performed with 6 replicates and Z-scores above 0.5 were achieved.
In one experiment, a C2C12 clone (A10; 25,000 cells per well in 24-well plates) was treated with drugs and biologics for 48 hours in growth media. […]

Compound	effect on miR-133 by luciferase assays
CC(C)Cn1c(=O)n(C)c(=O)c2[nH]cnc21 [IBMX, 3-isobutyl-1-methylxanthine, reference compound]	enhancers of miR-133
Insulin	inhibitors of miR-133
TGF-β	inhibitors of miR-133
NC(=O)c1ncn([C@@H]2O[C@H](CO)[C@@H](O)[C@H]2O)c1N [AICAR, 5′ amino-1-βD-ribofuranosyl-imidazole-4-carboxamide, reference compound]	enhancers of miR-133
